Reference: the CheMixHub ionic liquid set

Experiment: xn = mol fraction of the nth substance listed
Conditions: for electrical conductivity: 293.2 K

CC[N+](CC)=C(N(C)C)N(C)C.O=S(=O)([N-]S(=O)(=O)C(F)(F)F)C(F)(F)F + CO
viscosity [mPa·s], 101 kPa
Conditions | 293.15 K | 298.15 K | 303.15 K | 308.15 K | 313.15 K | 318.15 K | 323.15 K
x1 = 0.0003107 | 0.59 | 0.556 | 0.528 | 0.493 | 0.462 | 0.442 | 0.42
x1 = 0.0006532 | 0.597 | 0.56 | 0.532 | 0.497 | 0.466 | 0.445 | 0.423
x1 = 0.00159 | 0.604 | 0.568 | 0.538 | 0.503 | 0.471 | 0.45 | 0.427
x1 = 0.003264 | 0.619 | 0.58 | 0.55 | 0.514 | 0.481 | 0.459 | 0.435
x1 = 0.006358 | 0.646 | 0.605 | 0.573 | 0.535 | 0.5 | 0.477 | 0.452
x1 = 0.01246 | 0.702 | 0.656 | 0.617 | 0.576 | 0.538 | 0.514 | 0.488
x1 = 0.01888 | 0.766 | 0.715 | 0.672 | 0.627 | 0.585 | 0.554 | 0.525
x1 = 0.02468 | 0.822 | 0.767 | 0.715 | 0.667 | 0.622 | 0.59 | 0.558
x1 = 0.03071 | 0.893 | 0.828 | 0.774 | 0.718 | 0.67 | 0.631 | 0.596
x1 = 0.03685 | 0.963 | 0.891 | 0.827 | 0.77 | 0.719 | 0.675 | 0.636
x1 = 0.04275 | 1.048 | 0.966 | 0.894 | 0.83 | 0.773 | 0.724 | 0.68
x1 = 0.05163 | 1.152 | 1.06 | 0.979 | 0.907 | 0.844 | 0.788 | 0.739
x1 = 0.05988 | 1.267 | 1.162 | 1.07 | 0.989 | 0.918 | 0.856 | 0.801
x1 = 0.07419 | 1.484 | 1.356 | 1.244 | 1.146 | 1.06 | 0.985 | 0.919
x1 = 0.08753 | 1.71 | 1.56 | 1.429 | 1.313 | 1.21 | 1.119 | 1.04

101 kPa
Conditions | electrical conductivity [S/m]
x1 = 0.0003107 | 0.0546
x1 = 0.0006532 | 0.102
x1 = 0.00159 | 0.205
x1 = 0.003264 | 0.334
x1 = 0.006358 | 0.564
x1 = 0.01246 | 0.89
x1 = 0.01888 | 1.17
x1 = 0.02468 | 1.31
x1 = 0.03071 | 1.47
x1 = 0.03685 | 1.59
x1 = 0.04275 | 1.67
x1 = 0.05163 | 1.78
x1 = 0.05988 | 1.83
x1 = 0.07419 | 1.89
x1 = 0.08753 | 1.9

CC[n+]1ccn(CCOC)c1.O=S(=O)([N-]S(=O)(=O)C(F)(F)F)C(F)(F)F + CO
100 kPa
Conditions | viscosity [mPa·s]
288.15 K, x1 = 0.2999 | 7.19
288.15 K, x1 = 0.5 | 15.9
288.15 K, x1 = 0.5984 | 22.75
288.15 K, x1 = 0.7934 | 37.29
293.15 K, x1 = 1 | 43.63
298.15 K, x1 = 0.1 | 1.627
298.15 K, x1 = 0.2999 | 5.44
303.15 K, x1 = 0.2999 | 4.8
303.15 K, x1 = 0.5 | 9.83
303.15 K, x1 = 1 | 29.33
308.15 K, x1 = 0.1997 | 2.658
308.15 K, x1 = 0.2999 | 4.263
308.15 K, x1 = 0.3966 | 6.33
308.15 K, x1 = 0.5984 | 12
308.15 K, x1 = 0.7934 | 18.08
313.15 K, x1 = 0.5984 | 10.42
313.15 K, x1 = 0.6953 | 13.27
313.15 K, x1 = 0.7934 | 15.68
318.15 K, x1 = 0.2999 | 3.449
